Legend:
[1] = molecular target: T1, Angiotensin-converting enzyme (Oryctolagus cuniculus) (UniProt P12822); details: Lung
T1 sequence (whole entry): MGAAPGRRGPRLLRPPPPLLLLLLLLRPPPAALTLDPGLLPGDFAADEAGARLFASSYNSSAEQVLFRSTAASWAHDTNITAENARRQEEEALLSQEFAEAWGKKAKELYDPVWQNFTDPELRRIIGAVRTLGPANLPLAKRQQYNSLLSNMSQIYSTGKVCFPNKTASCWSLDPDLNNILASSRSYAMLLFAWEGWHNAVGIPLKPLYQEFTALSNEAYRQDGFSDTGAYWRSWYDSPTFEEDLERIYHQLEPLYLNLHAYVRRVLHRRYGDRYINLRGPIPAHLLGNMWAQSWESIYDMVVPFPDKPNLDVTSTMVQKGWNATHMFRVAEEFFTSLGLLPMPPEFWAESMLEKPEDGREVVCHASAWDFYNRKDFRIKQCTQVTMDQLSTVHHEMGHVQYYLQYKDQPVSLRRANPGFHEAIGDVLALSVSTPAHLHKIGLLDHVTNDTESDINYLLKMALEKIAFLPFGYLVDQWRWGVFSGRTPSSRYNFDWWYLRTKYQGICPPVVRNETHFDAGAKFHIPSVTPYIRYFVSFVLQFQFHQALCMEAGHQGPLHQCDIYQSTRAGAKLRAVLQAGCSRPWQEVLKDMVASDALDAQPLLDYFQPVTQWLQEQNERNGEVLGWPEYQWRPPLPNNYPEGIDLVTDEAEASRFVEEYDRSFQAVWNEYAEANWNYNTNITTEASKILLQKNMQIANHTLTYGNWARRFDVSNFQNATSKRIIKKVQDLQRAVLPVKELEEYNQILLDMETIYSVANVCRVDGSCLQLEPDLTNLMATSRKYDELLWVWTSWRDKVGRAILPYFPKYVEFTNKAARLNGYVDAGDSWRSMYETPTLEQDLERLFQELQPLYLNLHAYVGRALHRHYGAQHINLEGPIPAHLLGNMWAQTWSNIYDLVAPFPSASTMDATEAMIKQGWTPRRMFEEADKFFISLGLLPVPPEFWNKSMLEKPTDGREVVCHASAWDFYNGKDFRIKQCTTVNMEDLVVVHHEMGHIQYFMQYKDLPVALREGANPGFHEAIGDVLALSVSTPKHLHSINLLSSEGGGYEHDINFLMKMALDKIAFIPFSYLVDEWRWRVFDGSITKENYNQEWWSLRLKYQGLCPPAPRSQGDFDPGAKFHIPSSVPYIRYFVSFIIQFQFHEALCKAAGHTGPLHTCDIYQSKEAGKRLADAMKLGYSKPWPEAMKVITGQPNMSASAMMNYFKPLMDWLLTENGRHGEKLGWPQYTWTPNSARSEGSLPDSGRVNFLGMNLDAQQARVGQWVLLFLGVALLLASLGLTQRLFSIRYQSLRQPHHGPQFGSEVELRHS

[2] = molecular target: Angiotensin-converting enzyme (Homo sapiens) (UniProt P12821+Q9BYF1); details: Sus scrofa; Plasma
Rattus norvegicus [3] = test: Time duration was determined for the actioni (determination of MAP in po administration) in rat; format: functional
[4] = molecular target: T1, Angiotensin-converting enzyme (Oryctolagus cuniculus); test: Time to inhibit maximum Angiotensin I converting enzyme in rabbit lung; format: functional, tissue-based
Rattus norvegicus [5] = test: Antihypertensive activity was determined in spontaneously hypertensive rat at a dose of 3 mg/kg(po) administration; format: functional
Rattus norvegicus [6] = species on record: Rattus norvegicus; test: The onset hour was determined in rat; format: functional
[7] = molecular target: T1, Angiotensin-converting enzyme (Oryctolagus cuniculus); test: In vivo inhibition of angiotensin I converting enzyme (ACE) in rabbit lung after (iv) administration of a dose of 10(mg/kg); format: organism-based
Rattus norvegicus [8] = test: Percent change in Na+in fasted rats at the dose of 25 mg/kg (iv), 5-24 h; format: functional
Rattus norvegicus [9] = test: Percent change in urinary volume in fasted rats at the dose of 25 mg/kg (iv), 5-24 h; format: functional, Urine
Rattus norvegicus [10] = test: Antihypertensive activity was determined in spontaneously hypertensive rat at a dose of 100 mg/kg(ip) administration; format: functional
[11] = molecular target: T1, Angiotensin-converting enzyme (Oryctolagus cuniculus); test: Time to inhibit maximum angiotensin I converting enzyme in rabbit lung; format: functional, tissue-based
[12] = molecular target: T1, Angiotensin-converting enzyme (Oryctolagus cuniculus); test: Time during which angiotensin I converting enzyme inhibition is greater than or equa to 30% in rabbit lung; format: functional, tissue-based
Rattus norvegicus [13] = test: Percent change in Na+ in fasted rats at the dose of 25 mg/kg (iv), 0-5 h; format: functional
Rattus norvegicus [14] = test: Percent change in urinary volume in fasted rats at the dose of 25 mg/kg (iv), 0-5 h; format: functional, Urine
Rattus norvegicus [15] = test: Percent change in K+ in fasted rats at the dose of 25 mg/kg (iv), 5-24 h; format: functional
Rattus norvegicus [16] = test: Percent change in K+ in fasted rats at the dose of 25 mg/kg (iv), 0-5 h; format: functional
Rattus norvegicus [17] = test: Time duration was determined for the actioni (determination of MAP in ip administration) in rat; format: functional
[18] = molecular target: T1, Angiotensin-converting enzyme (Oryctolagus cuniculus); test: In vivo inhibition of Angiotensin I converting enzyme in rabbit lung after (po) administration of a dose of 10(mg/kg); format: organism-based
[19] = tested on: Angiotensin-converting enzyme (Sus scrofa); test: Time during which ACE inhibition is greater than or equal to 30% in Hog plasma
[20] = molecular target: T2, Angiotensin-converting enzyme (Oryctolagus cuniculus, UniProt P12822); test: In vitro inhibition of Angiotensin I converting enzyme in rabbit lung; format: tissue-based
T2 sequence (P12822 whole entry): T1 sequence (whole entry)

[21] = molecular target: T1, Angiotensin-converting enzyme (Oryctolagus cuniculus); test: Time during which Angiotensin I converting enzyme inhibition is greater than or equa to 30% in rabbit lung
[22] = molecular target: T1, Angiotensin-converting enzyme (Oryctolagus cuniculus); test: In vivo inhibition of Angiotensin I converting enzyme in rabbit lung at the dose of 10(mg/kg), po; format: organism-based
[23] = tested on: Angiotensin-converting enzyme (Sus scrofa); test: Time to inhibit maximum Angiotensin I converting enzyme in Hog plasma
[24] = molecular target: T1, Angiotensin-converting enzyme (Oryctolagus cuniculus); test: In vivo inhibition of Angiotensin I converting enzyme in rabbit lung after (iv) administration of a dose of 1.0(mg/kg); format: organism-based
Rattus norvegicus [25] = test: Percent change in K+ in fasted rats at the dose of 10 mg/kg (iv), 0-5 h; format: functional
Rattus norvegicus [26] = test: Percent change in urinary volume in fasted rats at the dose of 30 mg/kg (po), 0-5 h; format: functional, Urine
Rattus norvegicus [27] = test: Percent change in K+ in fasted rats at the dose of 30 mg/kg (po), 0-5 h; format: functional
Rattus norvegicus [28] = test: Percent change in Na+ in fasted rats at the dose of 10 mg/kg (iv), 0-5 h; format: functional
Rattus norvegicus [29] = test: Percent change in Na+in fasted rats at the dose of 30 mg/kg (po), 0-5 h; format: functional
Rattus norvegicus [30] = test: Percent change in urinary volume in fasted rats at the dose of 10 mg/kg (iv), 0-5 h; format: functional, Urine

Chain of Angiotensin-converting enzyme (Homo sapiens) (P12821 whole entry, looked up): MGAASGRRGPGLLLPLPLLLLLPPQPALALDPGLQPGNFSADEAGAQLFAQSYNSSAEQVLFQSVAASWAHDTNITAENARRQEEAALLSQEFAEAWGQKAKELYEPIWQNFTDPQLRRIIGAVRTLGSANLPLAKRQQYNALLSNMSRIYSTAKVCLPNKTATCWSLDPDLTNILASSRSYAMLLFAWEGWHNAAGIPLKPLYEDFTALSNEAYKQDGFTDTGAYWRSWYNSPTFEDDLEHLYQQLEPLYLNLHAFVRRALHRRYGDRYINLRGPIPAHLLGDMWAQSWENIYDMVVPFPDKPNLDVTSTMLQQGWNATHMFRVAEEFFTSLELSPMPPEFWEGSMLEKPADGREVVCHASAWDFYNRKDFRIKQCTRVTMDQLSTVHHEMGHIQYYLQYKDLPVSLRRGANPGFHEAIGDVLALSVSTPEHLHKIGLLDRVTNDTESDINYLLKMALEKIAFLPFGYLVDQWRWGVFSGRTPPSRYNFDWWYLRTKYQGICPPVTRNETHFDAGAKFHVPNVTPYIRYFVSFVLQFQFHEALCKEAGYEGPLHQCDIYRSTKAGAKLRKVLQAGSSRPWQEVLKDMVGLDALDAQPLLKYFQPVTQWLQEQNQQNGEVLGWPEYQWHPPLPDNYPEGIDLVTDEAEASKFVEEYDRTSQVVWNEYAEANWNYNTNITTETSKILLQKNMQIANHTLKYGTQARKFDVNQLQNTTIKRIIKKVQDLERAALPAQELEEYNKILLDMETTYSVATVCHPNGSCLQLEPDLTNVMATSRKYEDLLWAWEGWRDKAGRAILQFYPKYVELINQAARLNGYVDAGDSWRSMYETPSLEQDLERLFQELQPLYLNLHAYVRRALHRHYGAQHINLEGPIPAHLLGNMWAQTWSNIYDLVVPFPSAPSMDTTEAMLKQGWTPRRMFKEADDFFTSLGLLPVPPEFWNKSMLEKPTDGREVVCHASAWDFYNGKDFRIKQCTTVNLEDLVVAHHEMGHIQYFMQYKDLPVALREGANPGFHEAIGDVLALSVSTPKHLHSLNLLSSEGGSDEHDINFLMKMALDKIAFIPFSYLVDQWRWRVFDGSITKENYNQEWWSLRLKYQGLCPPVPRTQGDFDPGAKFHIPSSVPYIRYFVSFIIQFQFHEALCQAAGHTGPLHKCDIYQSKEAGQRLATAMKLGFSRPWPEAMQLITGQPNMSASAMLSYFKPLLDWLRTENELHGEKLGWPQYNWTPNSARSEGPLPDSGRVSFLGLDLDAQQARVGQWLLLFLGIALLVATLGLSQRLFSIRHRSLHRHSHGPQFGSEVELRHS
Chain of Angiotensin-converting enzyme (Homo sapiens) (Q9BYF1 whole entry, looked up): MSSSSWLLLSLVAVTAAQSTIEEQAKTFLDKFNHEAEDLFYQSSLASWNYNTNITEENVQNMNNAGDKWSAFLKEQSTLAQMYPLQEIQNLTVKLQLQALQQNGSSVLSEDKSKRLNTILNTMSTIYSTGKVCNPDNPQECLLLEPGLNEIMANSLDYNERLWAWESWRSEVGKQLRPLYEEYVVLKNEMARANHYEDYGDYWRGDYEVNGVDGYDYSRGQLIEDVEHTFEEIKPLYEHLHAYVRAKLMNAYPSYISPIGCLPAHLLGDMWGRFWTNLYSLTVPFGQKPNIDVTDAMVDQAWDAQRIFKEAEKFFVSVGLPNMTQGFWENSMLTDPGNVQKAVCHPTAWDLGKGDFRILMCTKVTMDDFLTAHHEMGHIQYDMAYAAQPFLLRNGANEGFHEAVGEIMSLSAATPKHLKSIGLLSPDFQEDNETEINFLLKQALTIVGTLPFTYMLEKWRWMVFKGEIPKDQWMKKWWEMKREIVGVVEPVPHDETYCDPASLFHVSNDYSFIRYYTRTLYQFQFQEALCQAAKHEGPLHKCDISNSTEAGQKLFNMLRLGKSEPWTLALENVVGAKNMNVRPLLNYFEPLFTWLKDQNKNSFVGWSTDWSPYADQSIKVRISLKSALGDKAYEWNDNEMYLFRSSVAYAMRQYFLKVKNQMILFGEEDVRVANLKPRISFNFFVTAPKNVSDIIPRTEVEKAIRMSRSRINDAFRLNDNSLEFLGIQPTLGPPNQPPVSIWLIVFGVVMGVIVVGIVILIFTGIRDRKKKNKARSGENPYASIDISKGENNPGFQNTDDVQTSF

Compound: CCOC(=O)[C@H](CCc1ccccc1)N[C@@H](C)C(=O)N1CCC[C@H]1C(=O)O
- Duration [1]: > 4 h
- Duration [2]: > 3 h
- Duration (Rattus norvegicus [3]): 4 h
- Time to max. inhibition [4]: 1 h
- Change in MAP (Rattus norvegicus [5]): -10%
- Onset (Rattus norvegicus [6]): 1 h

Compound: C[C@H](N[C@@H](CCc1ccccc1)C(=O)O)C(=O)N1C[C@@H](NS(=O)(=O)c2cc3c(cc2Cl)NC=NS3(=O)=O)C[C@H]1C(=O)O
- inhibition [7]: 78%
- Change (Rattus norvegicus [8]): 0%
- Change (Rattus norvegicus [9]): 61%
- Change in MAP (Rattus norvegicus [10]): -11%
- Time to max. inhibition [11]: 0.3 h
- Duration [12]: 1.25 h
- Onset (Rattus norvegicus [6]): <0.25 h
- Change (Rattus norvegicus [13]): 0%
- Change (Rattus norvegicus [14]): 0%
- Change (Rattus norvegicus [15]): 67%
- Change (Rattus norvegicus [16]): 40%
- Duration (Rattus norvegicus [17]): 3 h

Compound: C[C@H](N[C@@H](CCc1ccccc1)C(=O)O)C(=O)N1CCC[C@H]1C(=O)O
- inhibition [18]: 74%

Compound: C[C@H](CS)C(=O)N1CCC[C@H]1C(=O)O
- inhibition [18]: 69%
- Duration [1]: 2 h
- Time to max. inhibition [4]: 0.7 h

Compound: C[C@H](N[C@@H](CCc1ccccc1)C(=O)O)C(=O)N1CC(NNC(=O)c2ccc(Cl)c(S(N)(=O)=O)c2)C[C@H]1C(=O)O (stereo not given in full)
- Duration [19]: 0 h
- IC50 [20]: 26 nM
- Duration [21]: 3 h
- Time to max. inhibition [4]: 0.3 h
- inhibition [22]: 52%
- Time to max. inhibition [23]: 0.3 h
- inhibition [24]: 85%

Compound: NS(=O)(=O)c1cc2c(cc1Cl)N=CNS2(=O)=O [CHLOROTHIAZIDE]
- Change (Rattus norvegicus [25]): 100%
- Change (Rattus norvegicus [26]): 94%
- Change (Rattus norvegicus [27]): 71%
- Change (Rattus norvegicus [28]): 60%
- Change (Rattus norvegicus [29]): 0%
- Change (Rattus norvegicus [30]): 83%

Source: ChEMBL document CHEMBL1124790, “Angiotensin converting enzyme inhibitors. 10. Aryl sulfonamide substituted N-[1-carboxy-3-phenylpropyl]-L-alanyl-L-proline derivatives as novel antihypertensives” (J Med Chem, 1990)
